Experimental findings from ChEMBL document CHEMBL5335791, “Antiparasitic activity of ivermectin: Four decades of research into a "wonder drug"” (Eur J Med Chem, 2023) are described below.

The nature of data set [1]: Selectivity index, ratio of CC50 for cytotoxicity against BALB/c mouse macrophages to IC50 for antileishmanial activity against promastigote form of Leishmania infantum infected in BALB/c mouse. Type of data set: toxicity.
Data set [2] relates to Leishmania infantum. Briefly: Antileishmanial activity against promastigote form of Leishmania infantum infected in BALB/c mouse assessed as reduction in parasite growth at 2.5 mg/kg, po administered once for every two days for 10 days. Type of data set: functional, organism-based.
Data set [3] can be described thus: (§1) Cytotoxicity against BALB/c mouse macrophage assessed as cell viability measured after 48 hrs by MTT assay. Type of data set: toxicity, cell-based. The note with it: BALB/c, mouse macrophages. For orientation: Tetrazolium assays rely on reduction of a dye to a coloured formazan, in cell work by metabolically active cells.
For data set [4], the system named is Trypanosoma evansi. Briefly: Antitrypanosomal activity against Trypanosoma evansi. Type of data set: functional, organism-based.
Data set [5] concerns Trypanosoma cruzi. Nature of the data set: Antitrypanosomal activity against Trypanosoma cruzi Y strain amastigotes. Type of data set: functional, organism-based.
Data set [6] in a line: Toxicity in mouse assessed as lethal dose. The note with it: in vivo.
The test system of data set [7] is Trypanosoma cruzi. Briefly: Antitrypanosomal activity against Trypanosoma cruzi Y strain intracellular epimastigotes assessed as viability of intracellular epimastigote measured after 5 days. Format: functional, organism-based.
Data set [8] deals with Trypanosoma cruzi. Briefly: Antitrypanosomal activity against Trypanosoma cruzi Y strain trypomastigotes. Format: functional, organism-based.
For data set [9], the system named is Macrophage. The description is as §1. Format: toxicity, cell-based. The conditions noted are these: macrophage, 48 h.
Data set [10] is described as follows: Acute toxicity in Beagle dog assessed as lethal dose. On the set-up: species or system Canis lupus familiaris. The note with it: in vivo.

A word on the IC50: it is the concentration that inhibits the measured activity by half. By CC50 is commonly meant the concentration giving 50% cytotoxicity. On to `C[C@@H]1[C@H](O)[C@@H](C)/C=C/C=C/C=C/C=C/C=C/C=C/C=C/[C@H](O[C@@H]2O[C@H](C)[C@@H](O)[C@H](N)[C@@H]2O)C[C@@H]2O[C@](O)(C[C@@H](O)C[C@@H](O)[C@H](O)CC[C@@H](O)C[C@@H](O)CC(=O)O[C@H]1C)C[C@H](O)[C@H]2C(=O)O` [AMPHOTERICIN B], for which the selectivity ratio in data set [1] (BALB/c, mouse macrophages, read-out: Ratio CC50/IC50) was approximately 9. In addition, in data set [2] (Leishmania infantum), the IC50 turned out to be 0.12 µM. Besides, in data set [3], the CC50 at 48 h stood at 1.06 µM.

As a reminder, the EC50 is the concentration giving half of the maximal effect. As a reminder, the LD50 is the dose at which mortality reaches 50%. Take IVERMECTIN: the IC50 in [4] came to 13.8 µM; in data set [2], 3.64 µM. The “Ratio CC50/IC50” value in data set [1] is given as 117. Also, the EC50 in data set [5] stood at 0.3 µM; in [7], 5.3 µM; in [8], 12.5 µM. Further, the values for the LD50 in [6] and in data set [10] were 0.2 mg/kg and 80 mg/kg, respectively. Moreover, the CC50 in data set [9] is 428 µM.
